Source: ChEMBL document CHEMBL5465560, “Selectivity Literature for EUbOPEN Chemogenomic Library” (2024)

Tests used:
[1] = molecular target: Homeodomain-interacting protein kinase 2 (Homo sapiens, UniProt Q9H2X6); assay: Selectivity interaction (Enzymatic assay (Eurofins)) EUB0001049a HIPK2
[2] = molecular target: Serine/threonine-protein kinase 32A (Homo sapiens) (UniProt Q8WU08); assay: Selectivity interaction (KinomeScan (DiscoverX)) EUB0000229b STK32A; conditions: at 10 µM
[3] = molecular target: Leukocyte tyrosine kinase receptor (Homo sapiens, UniProt P29376); assay: Selectivity interaction (KinomeScan (DiscoverX)) EUB0001079a LTK; conditions: at 1 µM
[4] = molecular target: RAF proto-oncogene serine/threonine-protein kinase (Homo sapiens) (UniProt P04049); assay: Selectivity interaction (KinomeScan (DiscoverX)) EUB0001079a RAF1; conditions: at 1 µM
Chain of RAF proto-oncogene serine/threonine-protein kinase (Homo sapiens) (P04049 whole entry): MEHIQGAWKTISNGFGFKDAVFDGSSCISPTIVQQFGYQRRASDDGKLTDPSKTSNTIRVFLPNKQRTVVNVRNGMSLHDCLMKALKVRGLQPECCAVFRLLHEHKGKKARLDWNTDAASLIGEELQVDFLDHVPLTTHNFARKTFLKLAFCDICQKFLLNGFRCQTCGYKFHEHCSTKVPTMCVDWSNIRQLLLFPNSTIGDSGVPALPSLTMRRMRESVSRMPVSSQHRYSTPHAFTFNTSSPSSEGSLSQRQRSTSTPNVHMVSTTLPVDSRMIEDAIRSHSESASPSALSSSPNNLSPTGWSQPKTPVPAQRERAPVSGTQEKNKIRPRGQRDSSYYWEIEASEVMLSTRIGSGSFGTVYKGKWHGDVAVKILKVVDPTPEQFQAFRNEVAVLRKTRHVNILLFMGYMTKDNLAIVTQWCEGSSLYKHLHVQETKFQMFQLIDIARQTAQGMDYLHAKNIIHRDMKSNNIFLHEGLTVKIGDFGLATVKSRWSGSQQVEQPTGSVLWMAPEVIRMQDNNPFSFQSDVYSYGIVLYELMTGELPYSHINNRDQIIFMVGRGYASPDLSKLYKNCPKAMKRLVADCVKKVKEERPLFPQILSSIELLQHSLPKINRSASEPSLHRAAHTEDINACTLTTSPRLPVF

[5] = molecular target: Mitogen-activated protein kinase kinase kinase 11 (Homo sapiens) (UniProt Q16584); conditions: at 10 µM
[6] = molecular target: Serine/threonine-protein kinase 24 (Homo sapiens) (UniProt Q9Y6E0); assay: Selectivity interaction (KinomeScan (DiscoverX)) EUB0000595a STK24; conditions: at 10 µM
Chain of Serine/threonine-protein kinase 24 (Homo sapiens) (Q9Y6E0 whole entry, looked up): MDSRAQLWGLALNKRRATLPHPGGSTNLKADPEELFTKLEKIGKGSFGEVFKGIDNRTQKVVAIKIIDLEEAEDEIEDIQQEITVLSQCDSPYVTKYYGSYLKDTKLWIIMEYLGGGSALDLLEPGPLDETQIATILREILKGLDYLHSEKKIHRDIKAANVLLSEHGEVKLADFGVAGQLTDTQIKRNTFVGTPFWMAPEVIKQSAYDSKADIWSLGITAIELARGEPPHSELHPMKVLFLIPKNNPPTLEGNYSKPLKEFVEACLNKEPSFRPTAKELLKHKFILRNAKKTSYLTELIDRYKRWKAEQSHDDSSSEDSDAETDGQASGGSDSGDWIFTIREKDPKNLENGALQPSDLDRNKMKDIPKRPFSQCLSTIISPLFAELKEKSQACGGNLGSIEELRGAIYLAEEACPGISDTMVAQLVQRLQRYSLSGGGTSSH

[7] = tested on: ALK tyrosine kinase receptor (Homo sapiens), Q9UM73 [C1156Y]; assay: (§1) Selectivity interaction (Ambit KINOMEscan and KiNATiv profiling in Jurkat cells) EUB0000090b ALK; format: cell-based; conditions: at 1 µM
Chain of ALK tyrosine kinase receptor (Homo sapiens), Q9UM73 [C1156Y] (Q9UM73 whole entry C1156Y, looked up): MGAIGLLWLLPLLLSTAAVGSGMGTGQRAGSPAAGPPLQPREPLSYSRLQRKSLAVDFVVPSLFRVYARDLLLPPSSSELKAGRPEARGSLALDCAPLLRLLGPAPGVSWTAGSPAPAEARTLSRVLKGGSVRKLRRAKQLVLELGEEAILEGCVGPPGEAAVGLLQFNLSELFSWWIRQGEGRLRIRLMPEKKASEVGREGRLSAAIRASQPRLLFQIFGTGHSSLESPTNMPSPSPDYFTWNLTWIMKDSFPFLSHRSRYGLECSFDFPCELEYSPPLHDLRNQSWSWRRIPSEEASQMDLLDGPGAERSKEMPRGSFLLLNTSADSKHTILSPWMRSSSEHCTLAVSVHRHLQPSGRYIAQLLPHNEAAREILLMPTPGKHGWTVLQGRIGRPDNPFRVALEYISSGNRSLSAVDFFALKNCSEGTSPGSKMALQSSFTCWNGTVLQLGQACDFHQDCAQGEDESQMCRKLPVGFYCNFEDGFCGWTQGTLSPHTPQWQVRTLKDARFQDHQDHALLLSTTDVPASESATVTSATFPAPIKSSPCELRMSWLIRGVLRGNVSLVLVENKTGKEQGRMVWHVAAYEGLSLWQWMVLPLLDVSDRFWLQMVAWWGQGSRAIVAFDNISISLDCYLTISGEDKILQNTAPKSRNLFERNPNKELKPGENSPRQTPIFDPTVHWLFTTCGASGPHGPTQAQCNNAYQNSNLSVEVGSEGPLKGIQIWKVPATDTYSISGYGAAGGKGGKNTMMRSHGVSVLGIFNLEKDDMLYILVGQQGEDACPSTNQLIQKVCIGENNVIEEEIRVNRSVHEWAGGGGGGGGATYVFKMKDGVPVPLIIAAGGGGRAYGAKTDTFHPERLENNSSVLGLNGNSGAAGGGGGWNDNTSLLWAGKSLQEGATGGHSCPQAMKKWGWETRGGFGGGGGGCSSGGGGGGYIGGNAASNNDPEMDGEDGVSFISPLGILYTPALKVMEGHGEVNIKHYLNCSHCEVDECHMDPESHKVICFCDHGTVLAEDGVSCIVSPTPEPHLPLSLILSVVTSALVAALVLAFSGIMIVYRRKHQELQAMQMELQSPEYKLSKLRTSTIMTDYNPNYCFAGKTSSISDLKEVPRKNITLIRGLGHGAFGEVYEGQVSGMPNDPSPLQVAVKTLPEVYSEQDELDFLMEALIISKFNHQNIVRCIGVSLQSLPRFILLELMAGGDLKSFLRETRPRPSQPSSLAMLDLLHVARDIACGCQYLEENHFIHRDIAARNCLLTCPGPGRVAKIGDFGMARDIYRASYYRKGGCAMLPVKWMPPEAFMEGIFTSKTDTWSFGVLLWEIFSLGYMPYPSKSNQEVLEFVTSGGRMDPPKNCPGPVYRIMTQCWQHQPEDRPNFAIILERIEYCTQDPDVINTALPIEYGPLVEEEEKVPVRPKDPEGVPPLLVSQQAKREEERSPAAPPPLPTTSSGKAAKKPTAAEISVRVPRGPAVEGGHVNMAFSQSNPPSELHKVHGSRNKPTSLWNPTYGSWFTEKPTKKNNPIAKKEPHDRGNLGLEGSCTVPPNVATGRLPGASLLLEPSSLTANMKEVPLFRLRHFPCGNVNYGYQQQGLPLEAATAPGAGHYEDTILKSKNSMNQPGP

[8] = tested on: ALK tyrosine kinase receptor (Homo sapiens), Q9UM73 [L1196M]; assay: as §1; format: cell-based; conditions: at 1 µM
Chain of ALK tyrosine kinase receptor (Homo sapiens), Q9UM73 [L1196M] (Q9UM73 whole entry L1196M, looked up): as the sequence (Q9UM73 whole entry C1156Y, looked up) above, with Y1156C, L1196M counted along it

[9] = molecular target: ALK tyrosine kinase receptor (Homo sapiens, UniProt Q9UM73); assay: as §1; format: cell-based; conditions: at 1 µM
Chain of ALK tyrosine kinase receptor (Q9UM73 19-1620 limits assumed): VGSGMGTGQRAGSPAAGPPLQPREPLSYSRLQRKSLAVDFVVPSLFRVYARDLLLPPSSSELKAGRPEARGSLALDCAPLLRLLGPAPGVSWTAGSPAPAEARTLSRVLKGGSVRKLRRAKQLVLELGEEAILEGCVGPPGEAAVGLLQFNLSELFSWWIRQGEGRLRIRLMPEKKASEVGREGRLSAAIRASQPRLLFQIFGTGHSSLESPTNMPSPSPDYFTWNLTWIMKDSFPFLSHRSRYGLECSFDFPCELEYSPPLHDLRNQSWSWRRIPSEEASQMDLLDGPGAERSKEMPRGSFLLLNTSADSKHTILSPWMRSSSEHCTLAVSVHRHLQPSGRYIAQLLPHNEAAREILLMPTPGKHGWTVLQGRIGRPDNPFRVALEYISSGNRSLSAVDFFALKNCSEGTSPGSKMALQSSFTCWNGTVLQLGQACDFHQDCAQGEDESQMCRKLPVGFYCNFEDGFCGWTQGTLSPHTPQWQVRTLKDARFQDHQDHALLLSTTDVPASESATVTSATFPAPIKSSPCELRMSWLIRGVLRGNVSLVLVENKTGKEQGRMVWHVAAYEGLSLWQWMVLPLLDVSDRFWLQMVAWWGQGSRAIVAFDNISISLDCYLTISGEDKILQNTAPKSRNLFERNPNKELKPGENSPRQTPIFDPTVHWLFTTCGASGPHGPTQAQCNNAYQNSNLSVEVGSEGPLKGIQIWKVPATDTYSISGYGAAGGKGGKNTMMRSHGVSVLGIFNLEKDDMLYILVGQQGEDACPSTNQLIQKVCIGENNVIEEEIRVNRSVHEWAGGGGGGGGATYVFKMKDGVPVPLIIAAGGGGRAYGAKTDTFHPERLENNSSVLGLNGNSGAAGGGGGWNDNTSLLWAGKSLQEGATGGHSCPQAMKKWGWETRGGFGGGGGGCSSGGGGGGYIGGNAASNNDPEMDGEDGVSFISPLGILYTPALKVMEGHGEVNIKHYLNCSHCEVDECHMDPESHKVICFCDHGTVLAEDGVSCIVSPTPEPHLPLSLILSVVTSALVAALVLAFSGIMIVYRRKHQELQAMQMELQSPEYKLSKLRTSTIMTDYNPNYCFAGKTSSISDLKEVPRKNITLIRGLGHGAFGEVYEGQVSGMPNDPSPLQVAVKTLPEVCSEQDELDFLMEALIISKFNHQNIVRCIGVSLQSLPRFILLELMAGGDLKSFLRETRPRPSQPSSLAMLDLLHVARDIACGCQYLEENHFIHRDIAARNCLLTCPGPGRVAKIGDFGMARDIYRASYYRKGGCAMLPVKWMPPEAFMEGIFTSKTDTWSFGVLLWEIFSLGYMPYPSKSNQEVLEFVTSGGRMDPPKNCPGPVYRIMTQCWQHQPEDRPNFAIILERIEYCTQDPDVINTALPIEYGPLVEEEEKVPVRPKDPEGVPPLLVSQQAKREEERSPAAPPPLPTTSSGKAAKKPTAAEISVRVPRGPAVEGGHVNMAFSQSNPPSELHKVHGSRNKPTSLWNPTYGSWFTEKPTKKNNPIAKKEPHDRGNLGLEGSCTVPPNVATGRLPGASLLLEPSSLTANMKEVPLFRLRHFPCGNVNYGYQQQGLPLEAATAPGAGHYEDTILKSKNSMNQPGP

[10] = molecular target: Serine/threonine-protein kinase PLK2 (Homo sapiens, UniProt Q9NYY3); assay: Selectivity interaction (Ambit KINOMEscan and KiNATiv profiling in Jurkat cells) EUB0000090b PLK2; format: cell-based; conditions: at 1 µM
[11] = molecular target: T1, Atypical kinase COQ8B, mitochondrial (Homo sapiens) (UniProt Q96D53); conditions: at 10 µM
T1 sequence (whole entry): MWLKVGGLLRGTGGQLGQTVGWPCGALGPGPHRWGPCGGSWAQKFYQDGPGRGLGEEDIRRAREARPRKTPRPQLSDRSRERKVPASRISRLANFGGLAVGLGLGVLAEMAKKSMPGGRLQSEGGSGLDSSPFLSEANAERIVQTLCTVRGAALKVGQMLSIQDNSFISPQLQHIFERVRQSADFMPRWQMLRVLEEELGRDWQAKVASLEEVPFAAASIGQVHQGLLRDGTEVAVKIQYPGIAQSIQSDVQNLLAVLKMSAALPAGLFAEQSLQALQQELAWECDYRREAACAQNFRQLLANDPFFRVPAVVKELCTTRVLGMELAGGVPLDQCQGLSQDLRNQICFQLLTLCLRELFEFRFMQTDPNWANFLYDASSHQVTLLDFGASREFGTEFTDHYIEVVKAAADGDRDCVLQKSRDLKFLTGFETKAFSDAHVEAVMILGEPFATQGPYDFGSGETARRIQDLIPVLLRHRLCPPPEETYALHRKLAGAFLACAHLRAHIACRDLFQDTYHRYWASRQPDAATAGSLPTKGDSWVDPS

[12] = molecular target: T2, Aurora kinase C (Homo sapiens) (UniProt Q9UQB9); assay: Selectivity interaction (KinomeScan (DiscoverX)) EUB0000655a AURKC; conditions: at 10 µM
T2 sequence (whole entry): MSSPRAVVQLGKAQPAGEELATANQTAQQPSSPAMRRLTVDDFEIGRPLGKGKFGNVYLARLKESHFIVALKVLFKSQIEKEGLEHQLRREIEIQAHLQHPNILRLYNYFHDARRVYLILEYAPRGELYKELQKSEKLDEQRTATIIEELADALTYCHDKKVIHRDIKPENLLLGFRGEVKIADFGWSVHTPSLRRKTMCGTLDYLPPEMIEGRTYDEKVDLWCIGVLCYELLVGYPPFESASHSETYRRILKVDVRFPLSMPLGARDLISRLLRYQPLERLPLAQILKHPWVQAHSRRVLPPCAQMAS

[13] = molecular target: Vascular endothelial growth factor receptor 2 (Homo sapiens, UniProt P35968); assay: Selectivity interaction (KinomeScan (DiscoverX)) EUB0000655a KDR; conditions: at 10 µM
[14] = molecular target: Mitogen-activated protein kinase kinase kinase kinase 4 (Homo sapiens, UniProt O95819); assay: Selectivity interaction (KinomeScan (DiscoverX)) EUB0000655a MAP4K4; conditions: at 10 µM
[15] = molecular target: T3, Ephrin type-A receptor 3 (Homo sapiens) (UniProt P29320); assay: Selectivity interaction (KinomeScan (DiscoverX)) EUB0000607a EPHA3; conditions: at 10 µM
T3 sequence (whole entry): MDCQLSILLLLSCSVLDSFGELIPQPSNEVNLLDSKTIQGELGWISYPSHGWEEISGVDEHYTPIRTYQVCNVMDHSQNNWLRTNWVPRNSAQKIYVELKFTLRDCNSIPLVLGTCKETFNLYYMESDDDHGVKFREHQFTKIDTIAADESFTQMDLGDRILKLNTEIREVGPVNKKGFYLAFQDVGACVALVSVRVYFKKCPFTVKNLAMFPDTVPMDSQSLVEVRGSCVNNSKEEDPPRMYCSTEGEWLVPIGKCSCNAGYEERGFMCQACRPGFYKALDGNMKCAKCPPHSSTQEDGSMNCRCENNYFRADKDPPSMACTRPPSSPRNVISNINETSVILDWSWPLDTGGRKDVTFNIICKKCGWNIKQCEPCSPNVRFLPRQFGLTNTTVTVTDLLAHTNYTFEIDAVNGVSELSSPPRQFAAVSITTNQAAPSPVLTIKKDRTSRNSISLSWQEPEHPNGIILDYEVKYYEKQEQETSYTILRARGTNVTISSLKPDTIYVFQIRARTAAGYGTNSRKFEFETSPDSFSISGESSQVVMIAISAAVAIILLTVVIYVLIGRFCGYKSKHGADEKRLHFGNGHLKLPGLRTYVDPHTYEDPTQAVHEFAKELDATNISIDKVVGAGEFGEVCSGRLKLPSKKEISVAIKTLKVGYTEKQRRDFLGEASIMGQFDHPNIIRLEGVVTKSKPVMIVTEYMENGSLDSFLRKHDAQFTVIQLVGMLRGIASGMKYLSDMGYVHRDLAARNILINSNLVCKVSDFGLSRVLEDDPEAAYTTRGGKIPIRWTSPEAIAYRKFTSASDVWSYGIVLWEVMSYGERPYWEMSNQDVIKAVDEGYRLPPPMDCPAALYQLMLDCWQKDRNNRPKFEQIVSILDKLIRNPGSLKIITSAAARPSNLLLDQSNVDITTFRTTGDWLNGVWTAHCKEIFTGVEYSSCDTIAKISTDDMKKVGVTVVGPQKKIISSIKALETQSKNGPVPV

[16] = molecular target: Serine/threonine-protein kinase PAK 2 (Homo sapiens) (UniProt Q13177); assay: Selectivity interaction (SelectScreen profiling (Invitrogen)) EUB0000607a PAK2; conditions: at 2 µM
Chain of Serine/threonine-protein kinase PAK 2 (Homo sapiens) (Q13177 whole entry): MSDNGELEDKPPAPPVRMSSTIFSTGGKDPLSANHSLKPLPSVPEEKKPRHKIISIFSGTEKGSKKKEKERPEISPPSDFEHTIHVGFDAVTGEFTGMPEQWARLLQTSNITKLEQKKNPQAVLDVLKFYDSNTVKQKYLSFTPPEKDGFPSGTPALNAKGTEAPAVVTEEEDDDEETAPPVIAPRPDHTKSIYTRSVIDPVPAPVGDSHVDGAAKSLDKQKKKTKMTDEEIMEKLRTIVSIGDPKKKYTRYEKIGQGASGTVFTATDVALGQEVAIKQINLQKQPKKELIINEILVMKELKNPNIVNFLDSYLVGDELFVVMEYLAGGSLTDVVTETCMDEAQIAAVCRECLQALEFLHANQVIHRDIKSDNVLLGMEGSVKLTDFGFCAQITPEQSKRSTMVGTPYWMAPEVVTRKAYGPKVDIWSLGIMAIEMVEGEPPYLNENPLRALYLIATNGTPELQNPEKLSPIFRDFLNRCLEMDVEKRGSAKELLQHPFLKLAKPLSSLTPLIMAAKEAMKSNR

[17] = molecular target: MAP kinase-activated protein kinase 2 (Homo sapiens, UniProt P49137); assay: Selectivity interaction (Kinase panel (Z-LYTE Assay)) EUB0001632a MAPKAPK2; conditions: at 10 µM

## COc1cc(Nc2nc(C)cc(-c3cnn4nc(OC)ccc34)n2)cc(C(F)(F)F)c1
[1]
  IC50: > 10 µM

## COc1cc(N(C)c2ccnc3ccc(C(F)(F)F)cc23)cc(OC)c1OC
[2]
  % binding: 82%

## Nc1cnc(N2CCc3cc(S(=O)(=O)Nc4c(F)cc(Cl)cc4F)cc(N4CCCC4=O)c32)nc1 [TP-020n]
[3]
  % of control: 100%
[4]
  % of control: 79%

## CCN(CC)CCCCNc1ncc2cc(-c3cc(OC)cc(OC)c3)c(NC(=O)NC(C)(C)C)nc2n1
[5]
  % of control: 100%

## COCC(=O)NC/C=C/c1ccc2ncnc(Nc3ccc(Oc4ccc(C)nc4)c(C)c3)c2c1 [CP-724714]
[6]
  % of control: 90%

## CN(C)C/C=C/C(=O)Nc1ccc(C(=O)N2CCCC(Nc3ncc(Cl)c(-c4c[nH]c5ccccc45)n3)C2)cc1 (configuration not stated)
[7]
  % of control: 100%
[8]
  % of control: 99%
[9]
  % of control: 86%
[10]
  % of control: 89%

## Cc1cc([C@@H](C)Nc2ccccc2C(=O)O)c2nc(N3CCOCC3)cc(=O)n2c1 [AZD-6482]
[11]
  % of control: 79%

## CN(C)CCOc1ccc(-c2nc(-c3ccncc3)c(-c3ccc4c(c3)CC/C4=N\O)[nH]2)cc1
[12]
  % of control: 100%
[13]
  % of control: 100%
[14]
  % of control: 27%

## CNC(=O)Nc1ccc(-c2nc(N3CC4CCC(C3)O4)c3cnn(C4CCC5(CC4)OCCO5)c3n2)cc1
[15]
  % of control: 100%
[16]
  % of inhibition: 15%

## Cn1cc(-n2cnc3c(NCc4nc5cc(Cl)c(Cl)cc5[nH]4)nc(N4CCOCC4)nc32)cn1
[17]
  % of control: -2.67%
